In patent US12433872B2, “Treatment of Acanthamoeba or Balamuthia trophozoites and/or cysts” (GEORGIA STATE UNIVERSITY RESEARCH FOUNDATION, INC., priority 2018, dated 2025):
Read-outs that look alike come from different tables or passages of the source.

Assays:
[1] = test system: Balamuthia mandrillaris trophozoites; test: Activity against Balamuthia mandrillaris trophozoites; assay type: cell-based; conditions: Balamuthia mandrillaris, read-out: Balamuthia mandrillaris IC50
Experimental: Balamuthia mandrillaris trophozoites were thawed and grown in 10 ml of BM-3 medium. […] After autoclaving, complete BM-3 media was produced by the addition of 10% fetal bovine serum and 125 μg of penicillin/streptomycin antibiotics. The table describes all of the compounds and the activity against Balamuthia trophozoites compared to the activity for select Acanthamoeba trophozoites shown in Table 5.

[2] = test system: Acanthamoeba castellanii trophozoites; test: Activity against Acanthamoeba castellanii trophozoites; assay type: cell-based
Experimental: Two Acanthamoeba species (Acanthamoeba castellanii—ATCC50370 and Acanthamoeba culbertsoni—ATCC30171) were bought from the American Type Culture Collection (ATCC) and one species (Acanthamoeba healyi) was donated from the Centers for Disease Control and Prevention (CDC) for our experimentations. Trophozoites were thawed and grown in 10 mL of a nutrient rich Peptose-Glucose (PG) media. The PG media composition is 83.26 mM Glucose (15 g/L), Protease Peptone (15 g/L, yeast extract is manufactured under controlled conditions to retain its vitamin content and other nutritive values such as free amino acids, no other composition information given), 2.2 mM KH2PO4 (300 mg/L), 2.97 μM Thiamine (1 mg/L), 99.86 μM L-methionine (14.9 mg/L), 4.6 μM Vitamin B12 (83.3 μl of 0.1 mg/mL stock/L) and 68 μM Biotin (83.3 μl of 0.2 mg/mL stock/L). […] One mL/L of the salt solution was added to the media stock prior to autoclaving. All reagents were purchased from Sigma Aldrich except the Glucose which was purchased from Alfa Aesar. The cell pellet was resuspended in a final volume of 10 mL of PG media, cultured in 75 cm^2 coming tissue culture flasks and incubated at 27° C. PG was supplemented with 125 μg of penicillin/streptomycin. Sub-culturing occurred twice per week to allow the continued growth and development of the Acanthamoeba trophozoites. […]

[3] = trophozoites, n = 2, Table 6, read-out: Acanthamoeba castellanii IC50
[4] = read-out: Acanthamoeba castellanii IC50

Compound COc1ccc(-c2nc3ccc(-c4nc5ccc(C(=N)C6=NCCCN6)cc5[nH]4)cc3[nH]2)cc1O [AN, 5-(6-(imino(1,4,5,6-tetrahydropyrimidin-2-yl)methyl)-1H,3′H-[2,5′-bibenzo[d]imidazol]-2′-yl)-2-methoxyphenol] has an IC50 ([1]; trophozoites, n = 2) of 230 nM and an IC50 [2, 3] of 480 nM.

CC(C)NC(=N)c1ccc2nc(-c3ccc(Oc4ccc(-c5nc6ccc(C(=N)NC(C)C)cc6[nH]5)c(Cl)c4)c(Cl)c3)[nH]c2c1 [AD, 2-(2-Chloro-4-(2-chloro-4-(6-(N-isopropylcarbamimidoyl)-1H-benzo[d]imidazol-2-yl)phenoxy)phenyl)-N-isopropyl-1H-benzo[d]imidazole-6-carboximidamide] was tested, and the IC50 ([1]; trophozoites, n = 2) was 130 nM and the IC50 [2, 3] was 830 nM.

CN(C)CCOc1cccc(-c2nc3ccc(-c4nc5ccc(C(=N)N)cc5[nH]4)cc3[nH]2)c1 [AQ, 2′-(3-(2-(dimethylamino)ethoxy)phenyl)-1H,3′H-[2,5-bibenzo[d]imidazole]-6-carboximidamide] gave an IC50 [1] of 420 nM and an IC50 [2, 4] of 13200 nM.

Compound CC1CCN(C(=N)c2ccc3nc(-c4ccc(Oc5ccc(-c6nc7ccc(C(=N)N8CCC(C)CC8)cc7[nH]6)cc5)cc4)[nH]c3c2)CC1 [BF] has an IC50 ([1]; trophozoites, n = 2) of 410 nM and an IC50 [2, 3] of 3870 nM.

COc1ccc(-c2nc3ccc(-c4nc5ccc(C6=NCCCCN6)cc5[nH]4)cc3[nH]2)cc1O [AM, 2-methoxy-5-(6-(4,5,6,7-tetrahydro-1H-1,3-diazepin-2-yl)-1H,3′H-[2,5′-bibenzo[d]imidazol]-2′-yl)phenol] gave an IC50 ([1]; trophozoites, n = 2) of 130 nM and an IC50 [2, 3] of 1930 nM.

In the case of Oc1cccc(-c2nc3ccc(-c4nc5ccc(C6=NCCCCN6)cc5[nH]4)cc3[nH]2)c1 [AO, 3-(6-(4,5,6,7-tetrahydro-1H-1,3-diazepin-2-yl)-1H,3′H-[2,5′-bibenzo[d]imidazol]-2′-yl)phenol], the IC50 ([1]; trophozoites, n = 2) is reported as 250 nM and the IC50 [2, 3] is reported as 2960 nM.

COc1cc(-c2nc3ccc(C(=N)NC(C)C)cc3[nH]2)ccc1Oc1ccc(-c2nc3ccc(C(=N)NC(C)C)cc3[nH]2)cc1C#N [Compound U, 2-(3-Cyano-4-(4-(6-(N-isopropylcarbamimidoyl)-1H-benzo[d]imidazol-2-yl)-2-methoxyphenoxy)phenyl)-N-isopropyl-1H-benzo[d]imidazole-6-carboximidamide] gave an IC50 ([1]; trophozoites, n = 2) of 150 nM and an IC50 [2, 3] of 1440 nM.

With CC(C)NC(=N)c1ccc2nc(-c3ccc(Oc4ccc(-c5nc6ccc(C(=N)NC(C)C)cc6[nH]5)cc4C#N)cc3)[nH]c2c1 [V, 2-(3-Cyano-4-(4-(6-(N-isopropylcarbamimidoyl)-1H-benzo[d]imidazol-2-yl)phenoxy)phenyl)-N-isopropyl-1H-benzo[d]imidazole-6-carboximidamide] the IC50 ([1]; trophozoites, n = 2) was 70 nM and the IC50 [2, 3] was 1030 nM.

Work on COc1cc(Oc2ccc(-c3nc4ccc(C(=N)NC(C)C)cc4[nH]3)cc2C#N)ccc1-c1nc2ccc(C(=N)NC(C)C)cc2[nH]1 [Z, 2-(3-Cyano-4-(4-(6-(N-isopropylcarbamimidoyl)-1H-benzo[d]imidazol-2-yl)-3-methoxyphenoxy)phenyl)-N-isopropyl-1H-benzo[d]imidazole-6-carboximidamide] yielded an IC50 ([1]; trophozoites, n = 2) of 280 nM and an IC50 [2, 3] of 1870 nM.

CC(C)NC(=N)c1ccc2nc(-c3ccc(Nc4ccc(-c5nc6ccc(C(=N)NC(C)C)cc6[nH]5)cc4)cc3)[nH]c2c1 [Compound AY] was tested, and the IC50 ([1]; trophozoites, n = 2) was 40 nM and the IC50 [2, 3] was 5990 nM.

Work on N=C(N)c1ccc(OCc2ccc(-c3ccc(C(=N)N)cc3)cc2)cc1 [Compound AU] yielded an IC50 ([1]; trophozoites, n = 2) of 360 nM and an IC50 [2, 3] of 2440 nM.

N=C(c1ccc2nc(-c3ccc(Oc4ccc(-c5nc6ccc(C(=N)N7CCCCCC7)cc6[nH]5)cc4)cc3)[nH]c2c1)N1CCCCCC1 [BD] was tested, and the IC50 ([1]; trophozoites, n = 2) was 350 nM and the IC50 [2, 3] was 5710 nM.

With N=C(N)c1ccc(-c2ccc(-c3nc4ccc(C(=N)N)cc4[nH]3)cc2)cc1 [Compound AX] the IC50 [1] was 350 nM and the IC50 [2, 4] was 6050 nM.

N=C(NC1CCC1)c1ccc2nc(-c3ccc4nc(-c5cccc(O)c5)[nH]c4c3)[nH]c2c1 [Compound AT] was tested, and the IC50 ([1]; trophozoites, n = 2) was 400 nM and the IC50 [2, 3] was 1250 nM.

In the case of CC(C)NC(=N)c1ccc2nc(-c3ccc(Oc4c(F)cc(-c5nc6ccc(C(=N)NC(C)C)cc6[nH]5)cc4F)cc3)[nH]c2c1 [W, 2-(3,5-Difluoro-4-(4-(6-(N-isopropylcarbamimidoyl)-1H-benzo[d]imidazol-2-yl)phenoxy)phenyl)-N-isopropyl-1H-benzo[d]imidazole-6-carboximidamide], the IC50 ([1]; trophozoites, n = 2) is reported as 290 nM and the IC50 [2, 3] is reported as 33300 nM.

CC(C)NC(=N)c1ccc2nc(-c3ccc(Oc4ccc(-c5nc6ccc(C(=N)NC(C)C)cc6[nH]5)cc4C#N)c(F)c3)[nH]c2c1 [X, 2-(3-Cyano-4-(2-fluoro-4-(6-(N-isopropylcarbamimidoyl)-1H-benzo[d]imidazol-2-yl)phenoxy)phenyl)-N-isopropyl-1H-benzo[d]imidazole-6-carboximidamide] gave an IC50 ([1]; trophozoites, n = 2) of 100 nM and an IC50 [2, 3] of 620 nM.

CC(C)NC(=N)c1ccc2nc(-c3ccc(Oc4ccc(-c5nc6ccc(C(=N)NC(C)C)cc6[nH]5)cc4Cl)cc3)[nH]c2c1 [Compound AJ] showed an IC50 [1] of 50 nM and an IC50 [2, 4] of 460 nM.

N=C(c1ccc2nc(-c3ccc(Oc4ccc(-c5nc6ccc(C(=N)N7CCSCC7)cc6[nH]5)cc4)cc3)[nH]c2c1)N1CCSCC1 [Compound BH] gave an IC50 ([1]; trophozoites, n = 2) of 500 nM and an IC50 [2, 3] of 17600 nM.

CC(C)NC(=N)c1ccc2nc(-c3ccc(Oc4ccc(-c5nc6ccc(C(=N)NC(C)C)cc6[nH]5)c(F)c4)c(C#N)c3)[nH]c2c1 [Y, 2-(3-Cyano-4-(3-fluoro-4-(6-(N-isopropylcarbamimidoyl)-1H-benzo[d]imidazol-2-yl)phenoxy)phenyl)-N-isopropyl-1H-benzo[d]imidazole-6-carboximidamide] showed an IC50 ([1]; trophozoites, n = 2) of 90 nM and an IC50 [2, 3] of 950 nM.

For CC(C)NC(=N)c1ccc2nc(-c3ccc(N(C)c4ccc(-c5nc6ccc(C(=N)NC(C)C)cc6[nH]5)cc4)cc3)[nH]c2c1 [BA], the IC50 ([1]; trophozoites, n = 2) was 50 nM and the IC50 [2, 3] was 1700 nM.

For N=C(c1ccc2nc(-c3ccc(Oc4ccc(-c5nc6ccc(C(=N)N7CCOCC7)cc6[nH]5)cc4)cc3)[nH]c2c1)N1CCOCC1 [BE], the IC50 ([1]; trophozoites, n = 2) was 380 nM and the IC50 [2, 3] was 4910 nM.

Compound CC(C)NC(=N)c1ccc2nc(-c3ccc(Oc4ccc(-c5nc6ccc(C(=N)NC(C)C)cc6[nH]5)c(Cl)c4)cc3)[nH]c2c1 [Compound AG] has an IC50 ([1]; trophozoites, n = 2) of 50 nM and an IC50 [2, 3] of 310 nM.

Work on CN(C)CCNC(=O)c1ccc(-c2nc3ccc(-c4nc5ccc(C(=N)N)cc5[nH]4)cc3[nH]2)cc1 [Compound AK, 4-(6-carbamimidoyl-1H,3′H-[2,5′-bibenzo[d]imidazol]-2′-yl)-N-(2-(dimethylamino)ethyl)benzamide] yielded an IC50 ([1]; trophozoites, n = 2) of 80 nM and an IC50 [2, 3] of 28800 nM.

Compound N=C(NC1CCCC1)c1ccc2nc(-c3ccc(Oc4ccc(-c5nc6ccc(C(=N)NC7CCCC7)cc6[nH]5)cc4)cc3)[nH]c2c1 [BB] has an IC50 ([1]; trophozoites, n = 2) of 100 nM and an IC50 [2, 3] of 2990 nM.

Compound CC(C)NC(=N)c1ccc2nc(-c3ccc(Oc4ccc(-c5nc6ccc(C(=N)NC(C)C)cc6[nH]5)cc4I)cc3)[nH]c2c1 [AE, 2-(3-Iodo-4-(4-(6-(N-isopropylcarbamimidoyl)-1H-benzo[d]imidazol-2-yl)phenoxy)phenyl)-N-isopropyl-1H-benzo[d]imidazole-6-carboximidamide] has an IC50 ([1]; trophozoites, n = 2) of 380 nM and an IC50 [2, 3] of 1090 nM.

CC(C)NC(=N)c1ccc2nc(-c3ccc(Oc4ccc(-c5nc6ccc(C(=N)NC(C)C)cc6[nH]5)c(Cl)c4)c(C#N)c3)[nH]c2c1 [AA, 2-(2-Chloro-4-(2-cyano-4-(6-(N-isopropylcarbamimidoyl)-1H-benzo[d]imidazol-2-yl)phenoxy)phenyl)-N-isopropyl-1H-benzo[d]imidazole-6-carboximidamide] was tested, and the IC50 ([1]; trophozoites, n = 2) was 60 nM and the IC50 [2, 3] was 730 nM.
